Assay results as given in paper PMC4418665, “Cyclization of the Urokinase Receptor-Derived Ser-Arg-Ser-Arg-Tyr Peptide Generates a Potent Inhibitor of Trans-Endothelial Migration of Monocytes” (PLoS ONE, 2015).
Peptide text beside a SMILES is read from it.

Tests used:
[1] = test system: RBL-2H3/ETFR cells; assay: RBL-2H3/ETFR cell proliferation, xCELLigence; format: cell-based, rat; conditions: 10 μM peptide, up to 90 hours, medium replaced every 24 hours, quadruplicate
[2] = test system: RBL-2H3/ETFR cells; assay: RBL-2H3/ETFR cell migration, xCELLigence RTCA; format: cell-based, rat; conditions: 4 hours, Cell Index, quadruplicate
Method: We have previously documented that SRSRY competes with the bacterial-derived N-formyl-methionyl-leucyl-phenylalanine peptide (fMLF) for binding to FPR type 1 (FPR1) and that both SRSRY and fMLF promote cell migration by triggering FPR1 internalization. […] Quantification of cell-associated fluorescence was assessed by reading cell lysates with a fluorescence plate reader. RBL-2H3 cells lack FPR1, thus they display very low uptake that was not saturable with unlabeled fMLF (Fig 2A). […] To evaluate the effect of [SRSRY] on agonist-dependent FPR1 internalization, binding experiments were performed at 37°C. […] Thus, we assessed whether [SRSRY] elicits effects on fMLF-directed cell migration. RBL-2H3/ETFR cell migration toward 10 nM fMLF was monitored in real-time for 4 hours as Cell Index changes due to the adhesion of migrating cells to microelectrodes using the xCELLigence RTCA technology as previously described. […]
Fig 2 Both linear and cyclic SRSRY peptides bind to FPR1. […] Fluorimetric measurement of cell-associated fluorescence was assed using 485 nm excitation and 535 nm emission filters. Data are expressed as a percentage of the fluorescence associated to RBL-2H3 cells exposed to FITC-fMLF alone (CTL = 100%) and represent a mean ± SD from triplicates. *Statistical significance (t-test) against None with p<0.001. […] Cell migration of RBL-2H3/ETFR cells monitored by the xCELLigence system. […]

N=C(N)NCCC[C@@H]1NC(=O)[C@H](CO)NC(=O)[C@H](Cc2ccc(O)cc2)NC(=O)[C@H](CCCNC(=N)N)NC(=O)[C@H](CO)NC1=O [[SRSRY], [Ser-Arg-Ser-Arg-Tyr]] (cyclo(RSRYS))
RBL-2H3/ETFR cell growth [1]: did not modify cell growth up to 90 hours
RBL-2H3/ETFR cell migration toward 10 nM fMLF in presence of peptide ([2]; 10 nM fMLF mixed with 10 nM peptide): reduced to the basal level
RBL-2H3/ETFR cell migration toward the peptide alone ([2]; 10 nM peptide in lower chamber): cell migration did not change significantly
